Results reported in patent publication US9302999B2, “Substituted triazoles as herbicides” (E. I. DU PONT DE NEMOURS AND COMPANY, priority 2012, dated 2016).

How the values were obtained:
Assay type in all cases: in vivo
[1] = system: barnyardgrass (Echinochloa crus-galli); assay: Test A pre-/postemergence: barnyardgrass; settings: for Barnyardgrass plant response rating: Postemergence; for Plant response rating, Barnyardgrass: Preemergence
Method in brief: (§1)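 Each species received preemergence soil-directed spraying and, at the same time, postemergence treatment of seedlings 2–10 cm tall. Formulation: non-phytotoxic solvent mixture including surfactant. Response assessed visually about ten days on, relative to untreated controls, 0–100 scale.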

[2] = system: crabgrass, large (large crabgrass, Digitaria sanguinalis); assay: Test A pre-/postemergence: crabgrass, large; settings: for Crabgrass, Large plant response rating: Postemergence; for Plant response rating, Crabgrass, Large: Preemergence
Method in brief: as §1

[3] = system: foxtail, giant (giant foxtail, Setaria faberii); assay: Test A pre-/postemergence: foxtail, giant; settings: for Foxtail, Giant plant response rating: Postemergence; for Plant response rating, Foxtail, Giant: Preemergence
Method in brief: as §1

[4] = system: morningglory (Ipomoea spp.); assay: Test A pre-/postemergence: morningglory; settings: for Morningglory plant response rating: Postemergence; for Plant response rating, Morningglory: Preemergence
Method in brief: as §1

[5] = system: pigweed (Amaranthus retroflexus); assay: Test A pre-/postemergence: pigweed; settings: for Pigweed plant response rating: Postemergence; for Plant response rating, Pigweed: Preemergence
Method in brief: as §1

[6] = system: velvetleaf (Abutilon theophrasti); assay: Test A pre-/postemergence: velvetleaf; settings: for Velvetleaf plant response rating: Postemergence; for Plant response rating, Velvetleaf: Preemergence
Method in brief: as §1

[7] = system: wheat (Triticum aestivum); assay: Test A pre-/postemergence: wheat; settings: for Wheat plant response rating: Postemergence; for Plant response rating, Wheat: Preemergence
Method in brief: as §1

corn (Zea mays) = assay: Test A pre-/postemergence: corn; settings: for Corn plant response rating: Postemergence; for Plant response rating, Corn: Preemergence
Method in brief: as §1

rice (Oryza sativa) = assay: Test C flooded paddy test: rice; settings: scale 0 to 100 (0 no effect, 100 complete control)
Method in brief: (§2)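 Visual ratings from 0 (no effect) to 100 (complete control), made against untreated controls 13 to 15 days after treatment, express plant response. Compounds went directly into paddy water over 2-leaf stage plants in pots flooded to 3 cm.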

[8] = system: sedge, umbrella (small-flower umbrella sedge, Cyperus difformis); assay: Test C flooded paddy test: sedge, umbrella; settings: scale 0 to 100 (0 no effect, 100 complete control)
Method in brief: as §2

[9] = system: ducksalad (Heteranthera limosa); assay: Test C flooded paddy test: ducksalad; settings: scale 0 to 100 (0 no effect, 100 complete control)
Method in brief: as §2

[10] = system: barnyardgrass (Echinochloa crus-galli); assay: Test C flooded paddy test: barnyardgrass; settings: scale 0 to 100 (0 no effect, 100 complete control)
Method in brief: as §2

[11] = 125 g ai/ha, 0 to 100 scale, 0 is no effect, 100 is complete control
[12] = 500 g ai/ha, visual rating on 0 to 100 scale (0 no effect, 100 complete control), approximately ten days
[13] = 125 g ai/ha, 0 to 100 scale (0 no effect, 100 complete control)
[14] = 500 g ai/ha, 0 to 100 scale, 0 is no effect, 100 is complete control
[15] = Flood (flooded paddy test), 125 g ai/ha, visual rating after 13 to 15 days
[16] = Flood (flooded paddy test), 250 g ai/ha, visual rating after 13 to 15 days

Cc1nn(-c2ccc(C(F)(F)F)cc2)nc1Oc1ccnc(OCC(F)(F)F)c1 [Compound 77]
90: Pigweed plant response rating [5, 11]
20: Crabgrass, Large plant response rating [2, 12] | Foxtail, Giant plant response rating [3, 12]
0: Barnyardgrass plant response rating [1, 11] | Plant response rating, Barnyardgrass [1, 13] | Plant response rating, Barnyardgrass [1, 14] | Plant response rating, Crabgrass, Large [2, 13] | Plant response rating, Foxtail, Giant [3, 13] | Plant response rating, Morningglory [4, 13] | Plant response rating, Morningglory [4, 14] | Plant response rating, Pigweed [5, 13] | Plant response rating, Velvetleaf [6, 13] | Plant response rating, Velvetleaf [6, 14] | Wheat plant response rating [7, 11] | Wheat plant response rating [7, 12] | Plant response rating, Wheat [7, 13] | Plant response rating, Wheat [7, 14] | Corn plant response rating (corn (Zea mays); [11]) | Plant response rating, Corn (corn (Zea mays); [13]) | Plant response rating, Corn (corn (Zea mays); [14]) | Plant response rating, Rice (rice (Oryza sativa); [15]) | Plant response rating, Rice (rice (Oryza sativa); [16]) | Plant response rating, Rice (rice (Oryza sativa); Flood, 31 g ai/ha) | Plant response rating, Rice (rice (Oryza sativa); Flood, 62 g ai/ha) | Plant response rating, Sedge, Umbrella [8, 15] | Plant response rating, Sedge, Umbrella [8, 16] | Plant response rating, Sedge, Umbrella ([8]; Flood, 31 g ai/ha) | Plant response rating, Sedge, Umbrella ([8]; Flood, 62 g ai/ha) | Plant response rating, Ducksalad [9, 15] | Plant response rating, Ducksalad [9, 16] | Plant response rating, Ducksalad ([9]; Flood, 31 g ai/ha) | Plant response rating, Ducksalad ([9]; Flood, 62 g ai/ha) | Plant response rating, Barnyardgrass [10, 15] | Plant response rating, Barnyardgrass [10, 16] | Plant response rating, Barnyardgrass ([10]; Flood, 31 g ai/ha) | Plant response rating, Barnyardgrass ([10]; Flood, 62 g ai/ha)
100: Pigweed plant response rating [5, 12]
10: Barnyardgrass plant response rating [1, 12] | Crabgrass, Large plant response rating [2, 11] | Plant response rating, Crabgrass, Large [2, 14] | Foxtail, Giant plant response rating [3, 11] | Plant response rating, Foxtail, Giant [3, 14] | Morningglory plant response rating [4, 11] | Morningglory plant response rating [4, 12] | Plant response rating, Pigweed [5, 14] | Velvetleaf plant response rating [6, 11] | Velvetleaf plant response rating [6, 12] | Corn plant response rating (corn (Zea mays); [12])

COc1nn(-c2ccc(C(F)(F)F)cc2)nc1C(O)c1ccnc(C(F)(F)F)c1 (stereo not drawn) [Compound 78]
90: Pigweed plant response rating [5, 12]
80: Plant response rating, Crabgrass, Large [2, 14]
20: Plant response rating, Barnyardgrass [1, 14] | Crabgrass, Large plant response rating [2, 12] | Plant response rating, Foxtail, Giant [3, 13] | Velvetleaf plant response rating [6, 12] | Plant response rating, Velvetleaf [6, 14] | Plant response rating, Barnyardgrass [10, 16]
50: Pigweed plant response rating [5, 11]
60: Plant response rating, Crabgrass, Large [2, 13] | Plant response rating, Pigweed [5, 13]
40: Morningglory plant response rating [4, 12]
10: Barnyardgrass plant response rating [1, 12] | Crabgrass, Large plant response rating [2, 11] | Foxtail, Giant plant response rating [3, 11] | Plant response rating, Morningglory [4, 14] | Velvetleaf plant response rating [6, 11] | Plant response rating, Velvetleaf [6, 13] | Corn plant response rating (corn (Zea mays); [12])
70: Plant response rating, Foxtail, Giant [3, 14] | Plant response rating, Pigweed [5, 14]
0: Barnyardgrass plant response rating [1, 11] | Plant response rating, Barnyardgrass [1, 13] | Morningglory plant response rating [4, 11] | Plant response rating, Morningglory [4, 13] | Wheat plant response rating [7, 11] | Wheat plant response rating [7, 12] | Plant response rating, Wheat [7, 13] | Plant response rating, Wheat [7, 14] | Corn plant response rating (corn (Zea mays); [11]) | Plant response rating, Corn (corn (Zea mays); [13]) | Plant response rating, Corn (corn (Zea mays); [14]) | Plant response rating, Rice (rice (Oryza sativa); [15]) | Plant response rating, Rice (rice (Oryza sativa); [16]) | Plant response rating, Rice (rice (Oryza sativa); Flood, 31 g ai/ha) | Plant response rating, Rice (rice (Oryza sativa); Flood, 62 g ai/ha) | Plant response rating, Sedge, Umbrella [8, 15] | Plant response rating, Sedge, Umbrella [8, 16] | Plant response rating, Sedge, Umbrella ([8]; Flood, 31 g ai/ha) | Plant response rating, Sedge, Umbrella ([8]; Flood, 62 g ai/ha) | Plant response rating, Ducksalad [9, 15] | Plant response rating, Ducksalad [9, 16] | Plant response rating, Ducksalad ([9]; Flood, 31 g ai/ha) | Plant response rating, Ducksalad ([9]; Flood, 62 g ai/ha) | Plant response rating, Barnyardgrass [10, 15] | Plant response rating, Barnyardgrass ([10]; Flood, 31 g ai/ha) | Plant response rating, Barnyardgrass ([10]; Flood, 62 g ai/ha)
30: Foxtail, Giant plant response rating [3, 12]

COc1nn(-c2ccc(C(F)(F)F)cc2)nc1C(C)(O)c1ccnc(C(F)(F)F)c1 (stereo not drawn) [Compound 79]
0: Barnyardgrass plant response rating [1, 11] | Barnyardgrass plant response rating [1, 12] | Plant response rating, Barnyardgrass [1, 13] | Plant response rating, Barnyardgrass [1, 14] | Crabgrass, Large plant response rating [2, 11] | Crabgrass, Large plant response rating [2, 12] | Plant response rating, Crabgrass, Large [2, 13] | Plant response rating, Crabgrass, Large [2, 14] | Foxtail, Giant plant response rating [3, 11] | Plant response rating, Foxtail, Giant [3, 13] | Plant response rating, Foxtail, Giant [3, 14] | Morningglory plant response rating [4, 11] | Morningglory plant response rating [4, 12] | Plant response rating, Morningglory [4, 13] | Plant response rating, Morningglory [4, 14] | Pigweed plant response rating [5, 11] | Pigweed plant response rating [5, 12] | Plant response rating, Pigweed [5, 13] | Plant response rating, Pigweed [5, 14] | Velvetleaf plant response rating [6, 11] | Velvetleaf plant response rating [6, 12] | Plant response rating, Velvetleaf [6, 13] | Plant response rating, Velvetleaf [6, 14] | Wheat plant response rating [7, 11] | Wheat plant response rating [7, 12] | Plant response rating, Wheat [7, 13] | Plant response rating, Wheat [7, 14] | Corn plant response rating (corn (Zea mays); [11]) | Corn plant response rating (corn (Zea mays); [12]) | Plant response rating, Corn (corn (Zea mays); [13]) | Plant response rating, Corn (corn (Zea mays); [14]) | Plant response rating, Rice (rice (Oryza sativa); [15]) | Plant response rating, Rice (rice (Oryza sativa); [16]) | Plant response rating, Rice (rice (Oryza sativa); Flood, 31 g ai/ha) | Plant response rating, Rice (rice (Oryza sativa); Flood, 62 g ai/ha) | Plant response rating, Sedge, Umbrella [8, 15] | Plant response rating, Sedge, Umbrella [8, 16] | Plant response rating, Sedge, Umbrella ([8]; Flood, 31 g ai/ha) | Plant response rating, Sedge, Umbrella ([8]; Flood, 62 g ai/ha) | Plant response rating, Ducksalad [9, 15] | Plant response rating, Ducksalad [9, 16] | Plant response rating, Ducksalad ([9]; Flood, 31 g ai/ha) | Plant response rating, Ducksalad ([9]; Flood, 62 g ai/ha) | Plant response rating, Barnyardgrass [10, 15] | Plant response rating, Barnyardgrass [10, 16] | Plant response rating, Barnyardgrass ([10]; Flood, 31 g ai/ha) | Plant response rating, Barnyardgrass ([10]; Flood, 62 g ai/ha)
10: Foxtail, Giant plant response rating [3, 12]

COc1nn(-c2ccc(C(F)(F)F)cc2)nc1C(F)c1ccnc(C(F)(F)F)c1 (stereo not drawn) [Compound 80]
80: Crabgrass, Large plant response rating [2, 12] | Foxtail, Giant plant response rating [3, 12] | Velvetleaf plant response rating [6, 11]
60: Plant response rating, Morningglory [4, 14]
40: Crabgrass, Large plant response rating [2, 11] | Morningglory plant response rating [4, 11] | Wheat plant response rating [7, 12] | Plant response rating, Wheat [7, 14]
30: Barnyardgrass plant response rating [1, 11] | Foxtail, Giant plant response rating [3, 11] | Plant response rating, Velvetleaf [6, 13]
10: Plant response rating, Corn (corn (Zea mays); [14])
100: Plant response rating, Crabgrass, Large [2, 14] | Plant response rating, Foxtail, Giant [3, 14] | Pigweed plant response rating [5, 11] | Pigweed plant response rating [5, 12] | Plant response rating, Pigweed [5, 13] | Plant response rating, Pigweed [5, 14] | Velvetleaf plant response rating [6, 12]
70: Barnyardgrass plant response rating [1, 12] | Plant response rating, Barnyardgrass [1, 14] | Plant response rating, Velvetleaf [6, 14] | Plant response rating, Sedge, Umbrella [8, 16]
20: Plant response rating, Barnyardgrass [1, 13] | Wheat plant response rating [7, 11] | Corn plant response rating (corn (Zea mays); [11]) | Corn plant response rating (corn (Zea mays); [12]) | Plant response rating, Barnyardgrass [10, 16]
0: Plant response rating, Morningglory [4, 13] | Plant response rating, Wheat [7, 13] | Plant response rating, Corn (corn (Zea mays); [13]) | Plant response rating, Rice (rice (Oryza sativa); [15]) | Plant response rating, Rice (rice (Oryza sativa); [16]) | Plant response rating, Rice (rice (Oryza sativa); Flood, 31 g ai/ha) | Plant response rating, Rice (rice (Oryza sativa); Flood, 62 g ai/ha) | Plant response rating, Sedge, Umbrella [8, 15] | Plant response rating, Sedge, Umbrella ([8]; Flood, 31 g ai/ha) | Plant response rating, Sedge, Umbrella ([8]; Flood, 62 g ai/ha) | Plant response rating, Ducksalad [9, 15] | Plant response rating, Ducksalad [9, 16] | Plant response rating, Ducksalad ([9]; Flood, 31 g ai/ha) | Plant response rating, Ducksalad ([9]; Flood, 62 g ai/ha) | Plant response rating, Barnyardgrass [10, 15] | Plant response rating, Barnyardgrass ([10]; Flood, 31 g ai/ha) | Plant response rating, Barnyardgrass ([10]; Flood, 62 g ai/ha)
90: Plant response rating, Crabgrass, Large [2, 13] | Plant response rating, Foxtail, Giant [3, 13] | Morningglory plant response rating [4, 12]
